Like-named read-outs stand apart in the source and are kept apart here.
Legend:
[1] = system: PBMC from healthy human donors; experiment: T cell proliferation assay (PHA-stimulated human PBMC, BrdU ELISA); format: cell-based; details: 48 hours
Method: Cell proliferation was analysed using the BrdU based cell proliferation ELISA from Roche (Mannheim, Germany) according to the manufacturer's instructions. T Cell Proliferation Assay Peripheral blood mononuclear cells (PBMC) from healthy human donors were isolated by centrifugation over Ficoll-Hypaque (Sigma-Aldrich, Germany) according to manufacturer's instructions. Purified PBMC were washed twice with PBS and resuspended in RPMI1640 culture medium supplemented with 10% dialyzed heat inactivated fetal calf serum, 1.5 mM L-glutamine, 100 U penicillin/ml, and […] (all from PAN Biotech, Aidenbach, Germany). For stimulation, PBMC were seeded at 1×10^5 cells/well, activated with 2 μg/ml phytohaemagglutinin (PHA, Sigma) and incubated with the test compound. After 48 hours proliferation was measured using the BrdU based cell proliferation ELISA from Roche (Mannheim, Germany) according to the manual.

IFN-γ = IFN-γ production by PHA-stimulated human PBMC (OptEIA human IFN-g ELISA); format: cell-based; details: PHA-stimulated human PBMC, 48 hours; column C; read-out: IC50 (IFNγ)
Method: Analysis of Proliferation of and Cytokine Production by Human PBMC Stimulated with PHA
Peripheral blood mononuclear cells (PBMC) from healthy human donors were purified using Accuspin™ System-Histopaque-1077 (Sigma) according to the protocol recommended by the manufacturer. Purified PBMC were then washed twice with phosphate-buffered saline (PBS) and resuspended in RPMI1640 culture medium supplemented with 10% dialyzed heat inactivated fetal calf serum, 1.5 mM L-glutamine, 100 U penicillin/ml, and […] (all from PAN Biotech, Aidenbach, Germany). For stimulation, PBMC were seeded at 1×10^5 cells/well, activated with 2 μg/ml phytohaemagglutinin (PHA, Sigma) and incubated with the test compounds for 48 hours. IL-17A, IL-17F and INF-γ were then determined in the culture supernatant using a Luminex BioPlex system, following the manufacturer's instructions (BioRad, Munich, Germany). For screening, compounds were used at 10, 1, 0.1 and 0.01 μM. To determine the IC50, compounds were titrated semilogarithmically.
Cytokines were determined in the aforementioned culture supernatant using the following methods: IL-17AA/AF was measured using the Luminex BioPlex system (BioRad, Munich, Germany); IL-17AA using the human homodimer IL-17A ELISA Ready Set Go Kit from eBioscience (Frankfurt, Germany); IL-17FF using the human IL-17F ELI-Pair from Hölzel DiagnosticaGmBH (Köln, Germany); and IFN-γ using the OptEIA human IFN-g ELISA from BD Bioscience (Heidelberg, Germany), all following the manufacturer's instructions.

[2] = PHA-stimulated human PBMC, column D, read-out: IC50 (Tcell proliferation)

Row | Compound | IC50 [1, 2] | other results
1 | COC(=O)c1c(-c2c(F)cccc2Cl)noc1-c1cnn(-c2cccc(C(F)(F)F)c2)c1C(F)(F)F [Example I-82, methyl 3-(2-chloro-6-fluorophenyl)-5-(5-(trifluoromethyl)-1-(3-(trifluoromethyl)phenyl)-1H-pyrazol-4-yl)isoxazole-4-carboxylate] | 1000 to 10000 nM | –
2 | COC(=O)c1c(-c2c(F)cccc2Cl)noc1-c1cnn(-c2ccccc2I)c1C(F)(F)F [Example I-88, methyl 3-(2-chloro-6-fluorophenyl)-5-(1-(2-iodophenyl)-5-(trifluoromethyl)-1H-pyrazol-4-yl)isoxazole-4-carboxylate] | 1000 to 10000 nM | –
3 | CC(C)Cn1ncc(-c2onc(-c3c(F)cccc3Cl)c2-c2nnn[nH]2)c1C(F)(F)F [Example 1, 3-(2-chloro-6-fluorophenyl)-5-(1-isobutyl-5-(trifluoromethyl)-1H-pyrazol-4-yl)-4-(1H-tetrazol-5-yl)isoxazole] | – | IC50 ([1]; human PBMC, 2 μg/ml PHA, read-out: D: IC50 (Tcell proliferation)): 1000 to 10000 nM
4 | COC(=O)c1c(-c2ccc(Cl)cc2)noc1-c1cnn(-c2cccc(F)c2)c1C(F)(F)F [Example I-73, methyl 3-(4-chlorophenyl)-5-(1-(3-fluorophenyl)-5-(trifluoromethyl)-1H-pyrazol-4-yl)isoxazole-4-carboxylate] | 1000 to 10000 nM | –
5 | NNC(=O)c1c(-c2cccc(F)c2)noc1-c1cnn(-c2cccc(F)c2)c1C(F)(F)F [Example I-134, 3-(3-fluorophenyl)-5-(1-(3-fluorophenyl)-5-(trifluoromethyl)-1H-pyrazol-4-yl)isoxazole-4-carbohydrazide] | 1000 to 10000 nM | –
6 | O=C(O)c1c(-c2ccccc2F)noc1-c1cnn(-c2cccc(F)c2)c1C(F)(F)F [Example I-91, 3-(2-fluorophenyl)-5-(1-(3-fluorophenyl)-5-(trifluoromethyl)-1H-pyrazol-4-yl)isoxazole-4-carboxylic acid] | 1000 to 10000 nM | –
7 | COC(=O)c1c(-c2c(F)cccc2Cl)noc1-c1cnn(-c2nc(-c3ccc(F)cc3)cs2)c1C(F)(F)F [Example I-54, methyl 3-(2-chloro-6-fluorophenyl)-5-(1-(4-(4-fluorophenyl)thiazol-2-yl)-5-(trifluoromethyl)-1H-pyrazol-4-yl)isoxazole-4-carboxylate] | 1000 to 10000 nM | –
8 | CCOc1cc(-n2ncc(-c3onc(-c4c(F)cccc4Cl)c3C(=O)OC)c2C(F)(F)F)ncn1 [Example I-116, methyl 3-(2-chloro-6-fluorophenyl)-5-(1-(6-ethoxypyrimidin-4-yl)-5-(trifluoromethyl)-1H-pyrazol-4-yl)isoxazole-4-carboxylate] | 1000 to 10000 nM | –
9 | O=C(O)c1c(-c2c(F)cccc2Cl)noc1-c1cnn(Cc2ccccc2F)c1C(F)(F)F [IB-86, 3-(2-chloro-6-fluorophenyl)-5-(1-(2-fluorobenzyl)-5-(trifluoromethyl)-1H-pyrazol-4-yl)isoxazole-4-carboxylic acid] | 1000 to 10000 nM | –
10 | COC(=O)c1c(-c2ccccc2)noc1-c1cnn(-c2ccc(OC(F)(F)F)cc2)c1C(F)(F)F [Example I-74, methyl 3-phenyl-5-(1-(4-(trifluoromethoxy)phenyl)-5-(trifluoromethyl)-1H-pyrazol-4-yl)isoxazole-4-carboxylate] | 1000 to 10000 nM | –
11 | COC(=O)c1c(-c2c(F)cccc2Cl)noc1-c1cnn(-c2ncc(C(F)(F)F)cc2Cl)c1C(F)(F)F [Example I-87] | 1000 to 10000 nM | –
12 | COC(=O)c1c(-c2c(F)cccc2Cl)noc1-c1cnn(-c2ccc(OC(F)(F)F)cc2)c1C(F)(F)F [Example I-33, methyl 3-(2-chloro-6-fluorophenyl)-5-(1-(4-(trifluoromethoxy)phenyl)-5-(trifluoromethyl)-1H-pyrazol-4-yl)isoxazole-4-carboxylate] | 1000 to 10000 nM | –
13 | CCOC(=O)c1c(-c2onc(-c3c(F)cccc3Cl)c2C(=O)OC)cnn1-c1cc(F)cc(F)c1 [Example I-39, methyl 3-(2-chloro-6-fluorophenyl)-5-(1-(3,5-difluorophenyl)-5-(ethoxycarbonyl)-1-H-pyrazol-4-yl)isoxazole-4-carboxylate] | 1000 to 10000 nM | –
14 | COC(=O)c1c(-c2c(F)cccc2Cl)noc1-c1cnn(-c2cccc(Cl)c2Cl)c1C(F)(F)F [Example I-4, methyl 3-(2-chloro-6-fluorophenyl)-5-(1-(2,3-dichlorophenyl)-5-(trifluoromethyl)-1H-pyrazol-4-yl)isoxazole-4-carboxylate] | 1000 to 10000 nM | –
15 | COC(=O)c1c(-c2ccc(Cl)c(Cl)c2)noc1-c1cnn(-c2cccc(F)c2)c1C(F)(F)F [Example I-97, methyl 3-(3,4-dichlorophenyl)-5-(1-(3-fluorophenyl)-5-(trifluoromethyl)-1H-pyrazol-4-yl)isoxazole-4-carboxylate] | 1000 to 10000 nM | –
16 | CCOC(=O)c1c(-c2onc(-c3c(F)cccc3Cl)c2C(=O)OC)cnn1CC(C)C [Example I-29] | 1000 to 10000 nM | –
17 | CNC(=O)c1c(-c2ccc(Cl)cc2)noc1-c1cnn(-c2cccc(F)c2)c1C(F)(F)F [Example I-75, 3-(4-chlorophenyl)-5-(1-(3-fluorophenyl)-5-(trifluoromethyl)-1H-pyrazol-4-yl)-N-methylisoxazole-4-carboxamide] | – | IC50 (IFN-γ): 1000 to 10000 nM
18 | COC(=O)c1c(-c2c(F)cccc2Cl)noc1-c1cnn(-c2onc(-c3ccc(Cl)cc3)c2C(=O)OC)c1C(F)(F)F [Example I-131, methyl 3-(2-chloro-6-fluorophenyl)-5-{[1-(4-methoxycarbonyl-3-(4-chlorophenyl)isoxazol-5-yl)-5-trifluoromethyl-1H-pyrazol-4-yl]}-isoxazole-4-carboxylate] | 1000 to 10000 nM | –
19 | COC(=O)c1c(-c2c(F)cccc2Cl)noc1-c1cnn(-c2ccccc2Br)c1C(F)(F)F [Example I-80, methyl 5-(1-(2-bromophenyl)-5-(trifluoromethyl)-1H-pyrazol-4-yl)-3-(2-chloro-6-fluorophenyl)isoxazole-4-carboxylate] | – | IC50 (IFN-γ): 1000 to 10000 nM
20 | CCOC(=O)c1c(-c2onc(-c3c(F)cccc3Cl)c2C(=O)OC)cnn1-c1ccccc1 [Example I-34, methyl 3-(2-chloro-6-fluorophenyl)-5-(5-(ethoxycarbonyl)-1-phenyl-1Hpyrazol-4-yl)isoxazole-4-carboxylate] | 1000 to 10000 nM | –
21 | COC(=O)c1c(-c2c(F)cccc2Cl)noc1-c1cnn(-c2cccc(F)c2)c1C(F)(F)C(F)F [Example I-64, methyl 3-(2-chloro-6-fluorophenyl)-5-(1-(3-fluorophenyl)-5-(1,1,2,2-tetrafluoroethyl)-1H-pyrazol-4-yl)isoxazole-4-carboxylate] | 1000 to 10000 nM | –
22 | COC(=O)c1c(-c2ccc(OC)cc2)noc1-c1cnn(-c2cccc(F)c2)c1C(F)(F)F [Example I-107, methyl 5-(1-(3-fluorophenyl)-5-(trifluoromethyl)-1H-pyrazol-4-yl)-3-(4-methoxyphenyl)isoxazole-4-carboxylate] | 1000 to 10000 nM | –
23 | CCOC(=O)c1c(-c2ccc(Cl)c(Cl)c2)noc1-c1cnn(-c2cccc(F)c2)c1C(F)(F)F [Example I-99, ethyl 3-(3,4-dichlorophenyl)-5-(1-(3-fluorophenyl)-5-(trifluoromethyl)-1H-pyrazol-4-yl)isoxazole-4-carboxylate] | – | IC50 (IFN-γ): 1000 to 10000 nM
24 | COC(=O)c1c(-c2c(F)cccc2Cl)noc1-c1cnn(-c2nccc(C(F)(F)F)n2)c1C(F)(F)F [Example I-67, methyl 3-(2-chloro-6-fluorophenyl)-5-(5-(trifluoromethyl)-1-(4-(trifluoromethyl)pyrimidin-2-yl)-1H-pyrazol-4-yl)isoxazole-4-carboxylate] | 100 to 1000 nM | –
25 | COc1ccccc1-n1ncc(-c2onc(-c3c(F)cccc3Cl)c2Br)c1C(F)(F)F [IB-23, 4-bromo-3-(2-chloro-6-fluorophenyl)-5-(1-(2-methoxyphenyl)-5-(trifluoromethyl)-1H-pyrazol-4-yl)isoxazole] | – | IC50 (IFN-γ): 1000 to 10000 nM
26 | COC(=O)c1c(-c2c(F)cccc2Cl)noc1-c1cnn(-c2ccc(Cl)cc2Cl)c1C(F)(F)F [Example I-7, methyl 3-(2-chloro-6-fluorophenyl)-5-(1-(2,4-dichlorophenyl)-5-(trifluoromethyl)-1H-pyrazol-4-yl)isoxazole-4-carboxylate] | 1000 to 10000 nM | –
27 | COc1ccc(-c2noc(-c3cnn(-c4cccc(F)c4)c3C(F)(F)F)c2C(=O)O)cc1 [Example I-108, 5-(1-(3-fluorophenyl)-5-(trifluoromethyl)-1H-pyrazol-4-yl)-3-(4-methoxyphenyl)isoxazole-4-carboxylic acid] | 1000 to 10000 nM | –
